Literature values as cited in US20180140572A1, “COMPOSITIONS COMPRISING A CANCER STEMNESS INHIBITOR AND AN IMMUNOTHERAPEUTIC AGENT FOR USE IN TREATING CANCER” (Boston Biomedical, Inc., priority 2015, published 2018).

Tested on: microsatellite stable (MSS) metastatic colorectal cancer (mCRC)
Settings: patients with MSS mCRC, cited from earlier work

Substance: pembrolizumab: immunotherapeutic agent that binds to PD-1
- immune-related progression-free survival at 20 weeks (20 weeks): 11%
- disease control rate: 11%
- effectiveness: not effective
- immune-related objective response rate: 0%
- response rate: 0%
